Bridge positions count the residues as written; N and C are the ends. Square brackets hold non-standard residues; d marks the D form. Peptide text beside a SMILES is read from it. * marks the point of attachment. Ileψ(thiazoline)Cys = CC[C@H](C)[C@H](N)C1=N[C@H](C(=O)*)CS1; dOrn = NCCC[C@@H](N)C(=O)O
Columns and labels:
[1] = tested on: Pseudomonas sp. isolated from infected middle-ear fluid; assay: Activity on paper disks and comparison with antibiotics (inhibition zones); assay type: cell-based; details: Ampicillin 10 μg, Bacitracin 10 units, Chloramphenicol 30 μg, Erythromycin 15 μg, Tetracycline 30 μg, peptide on paper disk
Protocol: Activity was tested against a Pseudomonas sp. isolated from infected middle-ear fluid.

strain ST4SA [2] = assay: Antibiotic resistance of strain ST4SA (antibiotic discs, Oxoid); assay type: cell-based, Enterococcus mundtii
strain ST4SA [3] = assay: Resistance of E. mundtii ST4 against antibiotics and anti-inflammatory drugs; assay type: cell-based, Enterococcus mundtii; details: Ibuprofen 5, Aspirin 5, Promoxil 100, Cipadur 50, Cefasyn 100, Roxibidd 30, Doximal 20, Ciploxx 100, Utin 80, Rheugesic 4, Coxflam 1.5, K-fenak 5, Preflam 3 mg/ml
strain ST4SA [4] = assay: Growth of strain ST4SA in the presence of TMP-SMX and Metronidazole; assay type: cell-based, Enterococcus mundtii; details: for Number of viable cells of strain ST4SA: NAN Palargon, 18 h, 37° C., control 1 × 10^8
Protocol: Children with HIV/AIDS are treated with Trimethoprim-sulfamethoxazole (TMP-SMX) and/or Metronidazole to prevent diarrhea.

[5] = tested on: Lactobacillus sakei DSM 20017; assay: Blocking of the Lipid II target site with vancomycin; assay type: cell-based; details: L. sakei DSM 20017, FIG. 26
Excerpt: To test this hypothesis, the Lipid II target site of Lactobacillus sakei DSM 20017 (sensitive to peptide ST 4SA) was blocked with vancomycin (see schematic presentation, FIG. 26). Vancomycin adheres to the amino acid side chain of the Lipid II molecule, which would, theoretically, prevent peptide ST4SA from binding to the same site (that is if Lipid II acts as receptor). […] The fact that peptide ST4SA binds to more than one anchoring site on the sensitive cell may explain why it has such a broad spectrum of antimicrobial activity (inhibitory to Gram-positive and Gram-negative bacteria).

[6] = Pseudomonas, read-out: Diameter of inhibition zones

Compound | Inhibition zone of antibiotic on ST4 (strain ST4SA [2]) | Resistance of strain ST4SA to antibiotic (strain ST4SA [2]) | also measured
CC1(C)S[C@@H]2[C@H](NC(=O)[C@H](N)c3ccccc3)C(=O)N2[C@H]1C(=O)O [Ampicillin] | +++ (+++ = inhibition zone, diameter larger than 17 mm) |  | zone of inhibition at 10 µg/disc [1, 6]: 24 mm
CC(=O)Oc1ccccc1C(=O)O [Aspirin] |  |  | Inhibition zone of medicament on Strain ST4SA (strain ST4SA [3]): + (+ = diameters between 1 mm and 11 mm)
CC[C@H](C)[C@H](N)C1=N[C@H](C(=O)N[C@@H](CC(C)C)C(=O)N[C@H](CCC(=O)O)C(=O)N[C@H](C(=O)N[C@H]2CCCCNC(=O)[C@H](CC(N)=O)NC(=O)[C@@H](CC(=O)O)NC(=O)[C@H](Cc3cnc[nH]3)NC(=O)[C@@H](Cc3ccccc3)NC(=O)[C@H]([C@@H](C)CC)NC(=O)[C@@H](CCCN)NC2=O)[C@@H](C)CC)CS1 [Bacitracin] ({Ileψ(thiazoline)Cys}-L[dE]IK[dOrn]I[dF]H[dD]N; lactam 4-C) | ++ (++ = inhibition zone, diameter 12 to 16 mm) |  | Diameter of inhibition zones [1]: 10 mm
Cc1nnc(SCC2=C(C(=O)O)N3C(=O)[C@@H](NC(=O)Cn4cnnn4)[C@H]3SC2)s1 [Cephazolin] | + (+ = inhibition zone, diameter 1 to 11 mm) |  | 
O=C(N[C@H](CO)[C@H](O)c1ccc([N+](=O)[O-])cc1)C(Cl)Cl [Chloramphenicol] | +++ (+++ = inhibition zone, diameter larger than 17 mm) |  | zone of inhibition at 30 µg/disc [1, 6]: 28 mm
O=C(O)c1cn(C2CC2)c2cc(N3CCNCC3)c(F)cc2c1=O [Ciprofloxzcin] | +++ (+++ = inhibition zone, diameter larger than 17 mm) |  | 
Cc1onc(-c2ccccc2Cl)c1C(=O)N[C@@H]1C(=O)N2[C@@H]1SC(C)(C)[C@@H]2C(=O)O [Cloxacillin] | − | resistant | 
CC[C@H]1OC(=O)[C@H](C)[C@@H](O[C@H]2C[C@@](C)(OC)[C@@H](O)[C@H](C)O2)[C@H](C)[C@@H](O[C@@H]2O[C@H](C)C[C@H](N(C)C)[C@H]2O)[C@](C)(O)C[C@@H](C)C(=O)[C@H](C)[C@@H](O)[C@]1(C)O [Erythromycin] | +++ (+++ = inhibition zone, diameter larger than 17 mm) |  | Diameter of inhibition zones [1]: No zone
CC(C)Cc1ccc(C(C)C(=O)O)cc1 (stereo not shown) [Ibuprofen] |  |  | Inhibition zone of medicament on Strain ST4SA (strain ST4SA [3]): ++ (++ = diameters between 12 mm and 16 mm)
COc1cccc(OC)c1C(=O)N[C@@H]1C(=O)N2[C@@H]1SC(C)(C)[C@@H]2C(=O)O [Methicillin] | − | resistant | 
Cc1ncc([N+](=O)[O-])n1CCO [Metronidazole] | − | resistant | Decrease of cell numbers of strain ST4SA (strain ST4SA [4]): four; Number of viable cells of strain ST4SA (strain ST4SA [4]; Metronidazole 50 mg): 1.3 × 10^4; Number of viable cells of strain ST4SA (strain ST4SA [4]; Metronidazole 100 mg): 6 × 10^4; Number of viable cells of strain ST4SA (strain ST4SA [4]; Metronidazole 200 mg): 3 × 10^4
CO[C@@H]1[C@@H](OC(N)=O)[C@@H](O)[C@H](Oc2ccc3c(O)c(NC(=O)c4ccc(O)c(CC=C(C)C)c4)c(=O)oc3c2C)OC1(C)C [Novobiocin] | +++ (+++ = inhibition zone, diameter larger than 17 mm) |  | 
C[C@@H]1[C@H](O)[C@@H](C)/C=C/C=C/CC/C=C/C=C/C=C/C=C/C(O[C@H]2O[C@H](C)[C@@H](O)[C@H](N)[C@@H]2O)CC2O[C@](O)(CC(O)C(O)CCC(O)CC(O)CC(O)CC(=O)O[C@H]1C)CC(O)C2C(=O)O (stereo partly shown) [Nystatin] | − | resistant | 
CC1COc2c(N3CCN(C)CC3)c(F)cc3c(=O)c(C(=O)O)cn1c23 (stereo not shown) [Oflaxacin] | ++ (++ = inhibition zone, diameter 12 to 16 mm) |  | 
Cc1onc(-c2ccccc2)c1C(=O)N[C@@H]1C(=O)N2[C@@H]1SC(C)(C)[C@@H]2C(=O)O [Oxacillin] | − | resistant | 
CO[C@H]1/C=C/O[C@@]2(C)Oc3c(C)c(O)c4c(O)c(c(/C=N/N5CCN(C)CC5)c(O)c4c3C2=O)NC(=O)/C(C)=C\C=C\[C@H](C)[C@H](O)[C@@H](C)[C@@H](O)[C@@H](C)[C@H](OC(C)=O)[C@@H]1C [Rifampicin] | +++ (+++ = inhibition zone, diameter larger than 17 mm) |  | 
[H]/N=C(/N)N[C@H]1[C@H](O)[C@@H](O)[C@H](O[C@@H]2O[C@@H](C)[C@](O)(C=O)[C@H]2O[C@@H]2O[C@@H](CO)[C@H](O)[C@@H](O)[C@@H]2NC)[C@@H](N/C(N)=N\[H])[C@@H]1O [Streptomycin] | − | resistant | 
CN(C)[C@@H]1C(O)=C(C(N)=O)C(=O)[C@@]2(O)C(O)=C3C(=O)c4c(O)cccc4[C@@](C)(O)[C@H]3C[C@@H]12 [Tetracycline] | +++ (+++ = inhibition zone, diameter larger than 17 mm) |  | zone of inhibition at 30 µg/disc [1, 6]: 35 mm
CN[C@H](CC(C)C)C(=O)N[C@H]1C(=O)N[C@@H](CC(N)=O)C(=O)N[C@H]2C(=O)N[C@H]3C(=O)N[C@H](C(=O)N[C@H](C(=O)O)c4cc(O)cc(O)c4-c4cc3ccc4O)[C@H](O)c3ccc(c(Cl)c3)Oc3cc2cc(c3O[C@@H]2O[C@H](CO)[C@@H](O)[C@H](O)[C@H]2O[C@H]2C[C@](C)(N)[C@H](O)[C@H](C)O2)Oc2ccc(cc2Cl)[C@H]1O [Vancomycin] | ++ (++ = inhibition zone, diameter 12 to 16 mm) |  | 
Neomycin | − | resistant | 
Nisin [reference compound] |  |  | Effect on target cells after blocking Lipid II with vancomycin [5]: prevented the binding of Nisin to the Lipid II target site
Penicillin | +++ (+++ = inhibition zone, diameter larger than 17 mm) |  | 
Trimethoprim-sulfamethoxazole [TMP-SMX] |  |  | Decrease of cell numbers of strain ST4SA (strain ST4SA [4]): four; Number of viable cells of strain ST4SA (strain ST4SA [4]; TMP-SMX 20/100 mg): 7 × 10^4; Number of viable cells of strain ST4SA (strain ST4SA [4]; TMP-SMX 40/200 mg): 8 × 10^4; Number of viable cells of strain ST4SA (strain ST4SA [4]; TMP-SMX 60/300 mg): 8 × 10^4; Number of viable cells of strain ST4SA (strain ST4SA [4]; TMP-SMX 80/400 mg): 1.8 × 10^4

From patent publication US7951385B2, “Probiotic strain and antimicrobial peptide derived therefrom” (Cipla Medpro Research and Development (Pty) Ltd., priority 2006, dated 2011)
